Test results from the supplement of paper PMC10307832.

Legend:
Test in all cases: relative viability (nuclei count vs DMSO), 5 days (fraction); higher = more cells survive
[1] = compound: O=C(O)c1ccc2c(c1)nc(Nc1cccc(Cl)c1)c1ccncc12 [Silmitasertib] + CC(C)C[C@H](NC(=O)[C@H](Cc1ccccc1)NC(=O)c1cnccn1)B(O)O [Bortezomib] (partner 0.002 µM)
Summary of the method: (§1)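 Lung cancer cell lines, seeded in 1536-well plates, were treated the following day by pin tool with a single drug or with five library-drug doses (not always all listed) in √10 steps on top of a fixed anchor-drug dose. Cells were fixed and nuclei stained in one step after 5 days, and nuclei were counted. Relative viability is the nuclei count for treated wells divided by that for vehicle wells, reported as medians of duplicate plates.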

[2] = compound: O=C(O)c1ccc2c(c1)nc(Nc1cccc(Cl)c1)c1ccncc12 [Silmitasertib] + C[C@]1(O)C[C@@H](c2nc(-c3ccc4ccc(-c5ccccc5)nc4c3)c3c(N)nccn32)C1 [Linsitinib] (partner 1 µM)
Summary of the method: as §1

[3] = compound: O=C(O)c1ccc2c(c1)nc(Nc1cccc(Cl)c1)c1ccncc12 [Silmitasertib] + N=C(N)NC(=N)NCCc1ccccc1 [Phenformin] (partner 250 µM)
Summary of the method: as §1

Silmitasertib + AZD7762 = compound: O=C(O)c1ccc2c(c1)nc(Nc1cccc(Cl)c1)c1ccncc12 [Silmitasertib] + NC(=O)Nc1cc(-c2cccc(F)c2)sc1C(=O)N[C@H]1CCCNC1 [AZD7762] (partner 0.2 µM)
Summary of the method: as §1

[4] = compound: O=C(O)c1ccc2c(c1)nc(Nc1cccc(Cl)c1)c1ccncc12 [Silmitasertib] + Nc1ncn([C@H]2C[C@H](O)[C@@H](CO)O2)c(=O)n1 [Decitabine] (partner 2 µM)
Summary of the method: as §1

| Cell Line | relative viability ([1]; first compound 0.04 µM) | relative viability ([1]; first compound 0.4 µM) | relative viability ([1]; first compound 1.265 µM) | relative viability ([1]; first compound 4 µM) | relative viability ([2]; first compound 0.04 µM) | relative viability ([2]; first compound 0.4 µM) | relative viability ([2]; first compound 1.265 µM) | relative viability ([2]; first compound 4 µM) | relative viability ([3]; first compound 0.04 µM) | relative viability ([3]; first compound 0.4 µM) | relative viability ([3]; first compound 1.265 µM) | relative viability ([3]; first compound 4 µM) | relative viability (Silmitasertib + AZD7762; first compound 0.04 µM) | relative viability (Silmitasertib + AZD7762; first compound 0.4 µM) | relative viability (Silmitasertib + AZD7762; first compound 1.265 µM) | relative viability (Silmitasertib + AZD7762; first compound 4 µM) | relative viability ([4]; first compound 0.04 µM) | relative viability ([4]; first compound 0.4 µM) | relative viability ([4]; first compound 1.265 µM) | relative viability ([4]; first compound 4 µM) |
| --- | --- | --- | --- | --- | --- | --- | --- | --- | --- | --- | --- | --- | --- | --- | --- | --- | --- | --- | --- | --- |
| NCI-H650 | 0.996 | 0.515 | 0.614 | 0.345 | 0.96 | 0.563 | 0.757 | 0.407 | 0.542 | 0.339 | 0.377 | 0.235 | 1.17 | 0.524 | 0.907 | 0.982 | 0.309 | 0.315 | 0.322 | 0.341 |
| NCI-H727 | 1 | 0.608 | 0.736 | 0.516 | 0.327 | 0.287 | 0.303 | 0.166 | 0.692 | 0.488 | 0.511 | 0.348 | 0.773 | 0.573 | 0.654 | 0.543 | 1.09 | 0.844 | 0.544 | 0.691 |
| NCI-H838 | 1.15 |  | 0.759 | 0.66 | 1.09 |  | 0.899 | 0.608 | 0.708 |  | 0.513 | 0.362 | 0.828 | 0.864 | 1.03 | 0.951 | 0.459 | 0.427 | 0.402 | 0.341 |
| NCI-H1355 | 1.27 |  | 1.16 | 0.929 | 0.857 |  | 0.768 | 0.796 | 0.457 |  | 0.46 | 0.43 | 0.729 |  | 0.776 | 0.679 | 0.343 |  | 0.371 | 0.285 |
| NCI-H1437 | 0.594 |  | 0.384 | 0.474 | 1.03 |  | 0.691 | 0.36 | 0.327 | 0.334 | 0.305 | 0.278 | 1.2 | 1.06 | 1.02 | 1.06 | 0.578 | 0.533 | 0.445 | 0.411 |
| NCI-H1651 | 0.957 | 0.894 | 1.02 | 0.934 | 0.944 | 1 | 0.901 | 0.942 | 0.339 | 0.321 | 0.378 | 0.363 | 0.505 | 0.449 | 0.481 | 0.675 | 0.65 | 0.542 | 0.197 | 0.692 |
| NCI-H1666 | 1.01 | 0.702 | 0.5 | 0.468 | 0.919 | 0.571 | 0.682 | 0.536 | 0.571 | 0.582 | 0.607 | 0.511 | 0.915 | 0.857 | 0.763 | 0.627 | 0.804 | 0.67 | 0.498 | 0.656 |
| NCI-H1734 | 0.911 |  | 0.827 | 0.841 | 0.884 |  | 0.801 | 0.929 | 0.499 | 0.358 | 0.42 | 0.357 | 0.555 | 0.445 | 0.544 | 0.513 | 0.613 | 0.52 | 0.536 | 0.412 |
| NCI-H1755 | 0.91 | 0.905 | 0.95 | 0.945 | 1.02 | 1.04 | 1.06 | 1.13 | 0.643 | 0.601 | 0.637 | 0.586 | 0.407 | 0.479 | 0.528 | 0.494 | 0.715 | 0.735 | 0.735 | 0.762 |
